Test results published in patent publication US12544365B2, “Pharmaceutical combination of an EP4 antagonist and immune checkpoint inhibitors for the treatment of tumours” (ROTTAPHARM BIOTECH S.R.L., priority 2019, dated 2026).

Key:
[1] = Physical and chemical stability testing of solid forms (mechanical, thermal stress)
PK experiments in rat = settings: in vivo, po
rat EP4R = molecular target: T1, rat EP4R (Rattus norvegicus, UniProt P43114); test: Ex vivo TNF-α release induced by LPS in whole blood of orally dosed rats: PGE2 IC50 vs dose and time
T1 construct: whole blood culture samples from animals treated orally with vehicle or Compound 1; from tissue; host or cells: whole blood of male Wistar Han rats
Protocol: Male Wistar Han rats (250-300 g b.w., Charles River, Italy) were housed six per cage in a temperature controlled room, set to maintain temperature within the range of 20° C. ±2° C. and relative humidity within the range of 55%+10 and with a 12-h/12-h light/dark cycle. Throughout the study animals had free access to standard laboratory chow (Teklad rodent diet 2018, Harlan Laboratories, S. Pietro al Natisone, UD, Italy) and drinking water. Care and handling of the animals were in accordance with the guidelines of the Local Government and the regulations of the European Community.
Authorization for experimental procedures was granted by the Italian Ministry of Health. […]
In details the day of the experiments, animals were anaesthetized with 2.5-3% isoflurane in O2 inside an induction chamber and blood (in average 7 ml/rat) was drawn from the abdominal aorta. […] Compared to the reference standard curve, TNF-α levels in samples were expressed as concentration (pg/ml).
For each animal, percent of inhibition by different PGE2 concentrations with respect to control sample, and the corresponding IC50 (or the half-maximal inhibitory concentration in a range 0-100% inhibition) were calculated by linear regression analysis. Moreover, in each treatment group either the mean TNF-α levels and the mean % inhibition by PGE2 were calculated. […]

T1 sequence (P43114 whole entry): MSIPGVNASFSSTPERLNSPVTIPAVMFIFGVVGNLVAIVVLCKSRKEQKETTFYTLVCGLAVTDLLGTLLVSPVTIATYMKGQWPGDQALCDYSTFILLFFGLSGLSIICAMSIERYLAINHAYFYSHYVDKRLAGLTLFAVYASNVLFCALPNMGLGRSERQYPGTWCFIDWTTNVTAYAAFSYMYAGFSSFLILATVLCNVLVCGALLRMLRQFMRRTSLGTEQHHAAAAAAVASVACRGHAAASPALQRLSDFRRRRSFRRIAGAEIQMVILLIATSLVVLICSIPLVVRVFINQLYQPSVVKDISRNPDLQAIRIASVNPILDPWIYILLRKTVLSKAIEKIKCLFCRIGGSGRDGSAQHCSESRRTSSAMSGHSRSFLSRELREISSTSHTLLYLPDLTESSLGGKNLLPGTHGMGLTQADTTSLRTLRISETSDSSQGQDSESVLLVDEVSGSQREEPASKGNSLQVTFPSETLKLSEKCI

O=C([O-])c1ccc(C2(NC(=O)[C@H]3CC4(CCN3Cc3ccc(C(F)(F)F)cc3)CC4)CC2)cc1.[Na+] [Compound 1, sodium (R)-4-(1-(6-(4-(trifluoromethyl)benzyl)-6-azaspiro[2.5]octane-5-carboxamido)cyclopropyl)benzoate]
thermodynamic stability of the form [1]: most thermodynamically stable anhydrous form
physical stability (conversion to amorphous form) ([1]; mechanical or thermal stress): more stable towards amorphization by thermal stress
Tmax (PK experiments in rat): 1 h
reversion of PGE2 TNF-α release inhibition, time course (rat EP4R; 10 mg/kg oral, blood sampling 1-3-24 hours): still evident also 24 hours after Compound 1 administration
minimum effective dose (rat EP4R; oral, rat, reversion of PGE2 inhibition of TNF-α release): 10 mg/kg
